Data published in paper PMC8038090, “Xanthine Oxidase Inhibitors from Filipendula ulmaria (L.) Maxim. and Their Efficient Detections by HPTLC and HPLC Analyses” (Molecules, 2021).
Values after ≈ are worked out from the molar mass of the structure shown. “Also recorded” adds a separate entry of the source. Like-named read-outs stand apart in the source and are kept apart here.

What was measured:
xanthine oxidase (XO) [1] = test: Measurement of XO interaction by HPLC (crude extract incubated with and without enzyme); format: binding; conditions: crude extract 1 mg/mL, XO 0.1 U/mL, 1 h; for Interaction with XO (HPLC subtraction, negative peaks): HPLC-UV 254 nm; for XO binding (%): estimated from difference of peak area with and without XO
Experimental: The identification of bioactive compounds which form in a complex mixture by rapid screening, without the requirement of purification, is a challenging approach. […] Based on the method described by Wang, we incubated the enzyme with the crude extract and carried out HPLC analyses on the filtrate after centrifugation.
The measurement of XO interaction was conducted according to Zhang’s procedure, with some modifications. The assay mixture contained 10 mL of crude extract at 1 mg/mL in water, and 200 µL of xanthine oxidase (final concentration of 0.1 U/mL), or 200 µL of water. Prior to the HPLC analysis, the solution was mixed for one hour at room temperature in the dark. After one hour, the mixture was centrifuged at 4500× g […] and supernatant was filtered through a 0.45 µm PTFE filter. […] Potential inhibitors were identified after subtraction of the chromatogram obtained from the assay with and without XO (negative peaks).

xanthine oxidase (XO) [2] = test: HPTLC xanthine oxidase bioautography (NBT/formazan); format: biochemical; conditions: for XO inhibitory activity on HPTLC bioautography plate (spot intensity): white/yellow spots on purple background, 1 mg/mL, 20 µL applied
Experimental: As the spectrophotometer analysis monitors the production of uric acid from xanthine, the HPTLC method measures the production of the superoxide radical anion formed during the regeneration of an enzyme. In contact with superoxide radical anion, the Nitro Blue Tetrazolium (NBT) is transformed in formazan (purple), inducing a change in the color of the reaction mixture. The inhibitors will appear as white/yellow spots under a purple background.
The samples were prepared by dissolving 1 mg of each fraction in 1 mL of methanol, and 20 µL was applied on 8 mm bands, 8 mm from the lower edge of the plate. The mobile phase was a mixture of ethyl acetate, dichloromethane, formic acid, acetic acid, and water (100:25:10:10:11). […] After development, plates were dried under a stream of cool air for 10 min.
The XO inhibition assay was conducted using the method developed by Ramallo [32], with slight modifications. After migration, the plates were dipped into a solution of PBS 120 mM containing xanthine oxidase (0.1 U/mL), EDTA (1 mM), and NBT (1 mM) in a sterilizer, at 37 °C in the dark for 30 min. The plates were then dipped into a solution of PBS 120 mM containing xanthine (1.5 mM) in a sterilizer, at 37 °C for 30 min in the dark.

xanthine oxidase (XO) [3] = biological target: xanthine oxidase (XO) (Bos taurus, UniProt P80457); test: Xanthine oxidase inhibitory activity by UV spectroscopy (uric acid formation at 293 nm); format: biochemical
Experimental: Inhibition of XO was conducted according to the procedure described by Sowndhararajan et al., with slight modifications. […] Prior to the addition of XO solution in the mixture, all the components were incubated at 25 °C in the dark for 5 min. […] The enzymatic activity assay without extract was defined as maximum relative activity, and the percentage of inhibition was calculated according to the method of Yan et al. IC50 values were determined using linear regression and are expressed in µg/mL of plant extract ± standard deviation. All measurements were performed in triplicate (n = 3).

[4] = Solubility for the XO assay; format: physicochemical; conditions: in water or DMSO
xanthine oxidase (XO) [5] = biological target: xanthine oxidase (XO); set-up: method as in doi:10.5539/jfr.v1n3p257, doi:10.1016/j.bjp.2015.08.013; conditions: described to possess no inhibitory activity; read-out: IC50, XO inhibition (described); cited from earlier work
[6] = Stability in solution for the XO assay; format: physicochemical
[7] = UV spectroscopy, xanthine 56 µM, XO 0.01 U/mL, 25 °C, n = 3, read-out: IC50 (µM), XO inhibition
[8] = UV spectroscopy, xanthine 56 µM, XO 0.01 U/mL, 25 °C, n = 3, read-out: IC50 (µg/mL), XO inhibition (converted)

xanthine oxidase (XO) (Bos taurus, UniProt P80457), sequence (P80457 2-1332 limits assumed): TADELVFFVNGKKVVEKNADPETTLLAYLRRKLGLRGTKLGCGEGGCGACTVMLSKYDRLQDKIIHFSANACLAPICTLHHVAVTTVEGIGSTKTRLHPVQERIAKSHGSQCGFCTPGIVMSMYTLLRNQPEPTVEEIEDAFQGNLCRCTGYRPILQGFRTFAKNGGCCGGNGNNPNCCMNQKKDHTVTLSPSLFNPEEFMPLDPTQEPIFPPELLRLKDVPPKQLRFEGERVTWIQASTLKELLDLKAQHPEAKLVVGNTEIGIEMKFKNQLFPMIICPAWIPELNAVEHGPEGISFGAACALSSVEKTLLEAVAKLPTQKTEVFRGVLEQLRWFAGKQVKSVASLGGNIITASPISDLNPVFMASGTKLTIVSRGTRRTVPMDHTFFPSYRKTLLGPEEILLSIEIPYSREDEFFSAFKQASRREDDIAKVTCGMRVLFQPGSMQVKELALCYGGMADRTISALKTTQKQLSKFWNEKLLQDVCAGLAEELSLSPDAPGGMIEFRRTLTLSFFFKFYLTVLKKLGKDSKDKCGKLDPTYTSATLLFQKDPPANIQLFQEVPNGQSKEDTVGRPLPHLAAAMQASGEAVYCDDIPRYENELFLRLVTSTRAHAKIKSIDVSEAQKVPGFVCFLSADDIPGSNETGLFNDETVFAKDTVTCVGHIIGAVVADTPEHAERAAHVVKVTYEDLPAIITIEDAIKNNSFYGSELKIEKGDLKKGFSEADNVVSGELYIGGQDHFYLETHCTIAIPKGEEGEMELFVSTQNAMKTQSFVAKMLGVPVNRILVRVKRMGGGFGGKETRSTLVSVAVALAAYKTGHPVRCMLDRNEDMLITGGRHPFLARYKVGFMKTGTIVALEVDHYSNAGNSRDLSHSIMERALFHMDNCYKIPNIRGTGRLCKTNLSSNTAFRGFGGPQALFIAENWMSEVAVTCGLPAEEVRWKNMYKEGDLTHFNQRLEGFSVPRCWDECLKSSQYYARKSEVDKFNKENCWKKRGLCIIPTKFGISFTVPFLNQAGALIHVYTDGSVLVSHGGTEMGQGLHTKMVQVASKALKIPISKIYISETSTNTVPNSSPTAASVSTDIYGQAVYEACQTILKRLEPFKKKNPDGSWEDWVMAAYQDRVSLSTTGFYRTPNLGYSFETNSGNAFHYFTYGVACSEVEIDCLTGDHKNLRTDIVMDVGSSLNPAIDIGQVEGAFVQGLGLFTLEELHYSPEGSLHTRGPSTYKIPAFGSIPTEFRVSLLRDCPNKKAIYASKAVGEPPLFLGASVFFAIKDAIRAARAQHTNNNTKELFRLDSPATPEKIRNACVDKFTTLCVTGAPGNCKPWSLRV

| SMILES | Interaction with XO (HPLC subtraction, negative peaks) (xanthine oxidase (XO) [1]) | XO binding (%) (xanthine oxidase (XO) [1]) | XO inhibitory activity on HPTLC bioautography plate (spot intensity) (xanthine oxidase (XO) [2]) | IC50 (xanthine oxidase (XO) [3]; [7]) [µM] | IC50 (xanthine oxidase (XO) [3]; [8]) [µM] | also measured |
| --- | --- | --- | --- | --- | --- | --- |
| O=C(O[C@@H]1O[C@@H]2COC(=O)c3cc(Oc4c(C(=O)O[C@@H]5O[C@@H]6COC(=O)c7cc(O)c(O)c(O)c7-c7c(cc(O)c(O)c7O)C(=O)O[C@H]6[C@H](OC(=O)c6cc(O)c(O)c(O)c6)[C@H]5OC(=O)c5cc(O)c(O)c(O)c5)cc(O)c(O)c4O)c(O)c(O)c3-c3c(cc(O)c(O)c3O)C(=O)O[C@H]2[C@H](OC(=O)c2cc(O)c(O)c(O)c2)[C@H]1OC(=O)c1cc(O)c(O)c(O)c1)c1cc(O)c(O)c(O)c1 [Rugosin D] | strongest interaction | around 60% | strong interactions | 35.7 ± 2.1 | – | IC50 (µg/mL), XO inhibition (xanthine oxidase (XO) [3]; UV spectroscopy, xanthine 56 µM, XO 0.01 U/mL, 25 °C, n = 3): 67.0 ± 1.1 µg/mL (≈ 35.7 µM) |
| O=c1c(O)c(-c2ccc(O)c(O)c2)oc2cc(O)cc(O)c12 [Quercetin] | seem to interact | ~50% | quite strong inhibitors; also recorded: strong interactions | – | – | – |
| O=c1c(O)c(-c2ccc(O[C@@H]3O[C@H](CO)[C@@H](O)[C@H](O)[C@H]3O)c(O)c2)oc2cc(O)cc(O)c12 [Spiraeoside] | significant interactions | around 30% | quite strong inhibitors; also recorded: strong interactions | 0.66 ± 0.02 | 0.668 | XO inhibitory activity relative to allopurinol (xanthine oxidase (XO) [3]; activity higher than allopurinol): around 25 times |
| O=c1oc2c(O)c(O)cc3c(=O)oc4c(O)c(O)cc1c4c23 [Ellagic acid] | – | – | weak activity | – | – | Stability on the HPTLC plate (xanthine oxidase (XO) [2]): decompose on the plate; Solubility [4]: not soluble |
| O=C(O)c1cc(O)c(O)c(O)c1 [Gallic acid] | – | – | – | – | > 1760 | IC50 (xanthine oxidase (XO) [5]): > 100 µM; IC50 (xanthine oxidase (XO) [3]): > 50 µM |
| O=c1c(O)c(-c2ccc(O[C@@H]3O[C@H](CO)[C@@H](O)[C@H](O)[C@H]3O)cc2)oc2cc(O)cc(O)c12 [Kaempferol-4′-O-glucoside] | significant interactions | – | – | – | – | – |
| O=c1c(O)c(-c2ccc(O)cc2)oc2cc(O)cc(O)c12 [Kaempferol] | seem to interact | – | quite strong inhibitors; also recorded: strong interactions | – | – | – |
| O=C(O)c1ccccc1O [Salicylic acid] | – | – | – | > 50 | > 2170 | IC50 (xanthine oxidase (XO) [5]): > 100 µM |
| O=c1c(O[C@@H]2O[C@H](CO)[C@H](O)[C@H](O)[C@H]2O)c(-c2ccc(O)c(O)c2)oc2cc(O)cc(O)c12 [Hyperoside] | did not seem to interact | – | weak interactions | > 50 | > 215 | – |
| O=c1c(O[C@@H]2O[C@H](CO)[C@@H](O)[C@H](O)[C@H]2O)c(-c2ccc(O)c(O)c2)oc2cc(O)cc(O)c12 [Isoquercitrin] | did not seem to interact | – | weak interactions | > 50 | > 215 | – |
| O=C(OC1O[C@@H]2COC(=O)c3cc(O)c(O)c(O)c3-c3c(cc(O)c(O)c3O)C(=O)O[C@H]2[C@H](OC(=O)c2cc(O)c(O)c(O)c2)[C@H]1OC(=O)c1cc(O)c(O)c(O)c1)c1cc(O)c(O)c(O)c1 (stereo partly drawn) [Tellimagrandin II] | strongest interaction | around 30% | weak activity | – | – | Stability on the HPTLC plate (xanthine oxidase (XO) [2]): decompose on the plate; Stability in solution [6]: decomposed in the solution |
